Assay results: PMC5449093, “Selective inhibitors of trypanosomal uridylyl transferase RET1 establish druggability of RNA post-transcriptional modifications” (RNA Biology, 2016)

Legend:
RET1 [1] = molecular target: T1, RET1 (Trypanosoma brucei brucei, UniProt Q8WQX5, A749G/DEL18-18/G858D/N24H/V111I/W59S); assay: Gel based assay for RET1 uridylylation activity (Sybr Gold); assay type: biochemical; settings: for Inhibition of RET1 uridylation of RNA, gel verification: inhibitor 50 µM, Fig. 3; for Gel Assay (qualitative activity in gel based assay): qualitative class: inactive, moderate or strong inhibitor, inhibitor 50 µM per method
T1 construct: Full-length RET1 protein (975aa) was expressed in E. coli as an N-terminal GST-tagged fusion protein; made in house; host or cells: E. coli BL21 (DE3)
Experimental: Individual reactions were made up in 0.2 ml PCR tubes (Peqlab 820264-A). RET1 enzyme (see SI text) was added (0.05 μl, 0.2 mg ml^−1), UTP (Thermo Scientific R0471 100 mM) was added to a final concentration of 50 μM. RNA substrate (see SI text) was added to a final concentration of 200 nM. Inhibitors were added as required (0.5 μl in DMSO) to a final concentration of 50 μM. When no inhibitor was included 5 % (vol/vol) DMSO was added as control. The volume was made up to 10 μl in buffer D (Tris pH 7.5 10 mM, KCl 200 mM, DTT 1 mM, EDTA 0.5 mM MgCl2 3.2 mM) and the reaction was incubated for 20 mins at 27°C, then inactivated at 65°C for 10 mins. RNA loading dye (10 μl, NEB B363A) was added and tubes were heated (5 mins at 70°C), 10 μl was loaded onto 15 % TBE urea pre-cast gel (Invitrogen EC68852) and run in 1 x TBE buffer for 1.5 h at 130 V. Gels were incubated with Sybr Gold nucleic acid stain (Life Technologies S11494) for 20 mins, then imaged on an ultraviolet trans-illuminator (BioDoc-It imaging system, UVP). Experiments were carried out in duplicate for each inhibitor.

RET1 [2] = molecular target: T1, RET1; assay: Luciferase coupled PPi assay, 384 well format, RET1; assay type: biochemical
Experimental: Reactions were made up in Corning® 384 Well Low Flange White Flat Bottom Polystyrene TC-Treated Micro plates (Product #3570). RET1 enzyme was added at 0.1 μl (0.2 mgml^−1), UTP (Thermo Scientific R0471 100 mM) and RNA substrate final concentrations were equal to their Km: 50 μM and 20 nM respectively.[18] The volume was made up to 10 μl with buffer 6 (Tris pH 7.5 10 mM, KCl 10 mM, DTT 1 mM, MgCl2 3.2 mM) and the reaction was incubated 20 mins at 25°C, then heat inactivated at 65°C for 10 mins. Test compounds were added in 0.5 μl of DMSO stock solution. The positive control included of 0.5 μl of DMSO. After a 10 min cooling period, 5 μl of each of detection and conversion reagents from PPiLight™ Inorganic Pyrophosphate Assay Kit (Lonza, LT07-610) were added. Luminescence was read with a Pherastar Plus micro plate reader. IC50 determinations were carried out in triplicate using the luciferase assay protocol in a dilution series of 1 mM to 99 nM.

CID1 poly (U) polymerase [3] = molecular target: T2, CID1 poly (U) polymerase (Schizosaccharomyces pombe, UniProt O13833); assay: biochemical
T2 construct: purchased NEB M0337S
Experimental: (§1) Poly (U) polymerase from Schizosaccharomyces pombe, was obtained from NEB (M0337S). […]
(§2) Duplicate reactions were set up with each containing, 0.2 units of Cid1 enzyme, NEB (M0337S) with UTP at final concentration of 18 µM, RNA 3 nM, and buffer 6 up to a final volume of 10 µl. The reaction was done at 37°C for 20 mins, then the enzyme heat inactivated at 65 °C for 10 mins.

CID1 poly (U) polymerase [4] = assay: biochemical; parameters: species or system Schizosaccharomyces pombe; settings: RET1 over CID1, calculated from IC50 values
Experimental: as §1, §2

T. brucei = assay: Treating T. brucei cultures with compounds, cell density counts; assay type: cell-based, Trypanosoma brucei; settings: blood and insect forms; concentrations close to RET1 IC50 values (70μM and 2μM); Fig. S4
Experimental: Wild type blood form strain of trypanosomes were cultured to densities of 5 × 10^5 cells ml^−1 at 37 °C in HMI-9 medium, 1 % pen/strep, 10 % FCS, Puromycin 0.1 ug ml^−1 , zeocin 1 µg ml^−1. Test compounds in DMSO were added at varying concentrations (DMSO final concentration 1 %). The trypanosomes where then split 1/10 dilution and sub-cultured every 24 h to the same cell density (5 × 10^5 cells ml^−1). At 24 hour intervals, cell density measurements were performed using a hem cytometer. Test concentrations were determined by an initial dose finding experiment and compounds were tested at 0.2, 0.5 and 1 times a fatal dose. This was in the region of the IC50 for both compounds.

PC12 cells = tested on: PC12 cells; parameters: method as in PMID 9256496; settings: concentrations of 10 μM; cited from earlier work
[5] = RET1 IC50, PPi assay 384-well follow-up, UTP 50 µM, RNA 20 nM
[6] = RET1 Inhibition IC50, selectivity experiment, Table 2

SMILES	Inhibition of RET1 uridylation of RNA, gel verification (RET1 [1])	Gel Assay (qualitative activity in gel based assay) (RET1 [1])	IC50 (RET1 [2]; [5]) [µM]	IC50 (RET1 [2]; [6]) [µM]	IC50 (CID1 poly (U) polymerase [3]) [mM]	RET1 Selectivity (fold) (CID1 poly (U) polymerase [4])	Toxicity to trypanosomes in culture (T. brucei)	Toxicity to PC12 cells (PC12 cells)
O=C(c1cc(O)c(O)c(O)c1)c1ccc(O)c(O)c1O [Compound 2, exifone]	effectively inhibit	Strong	2	2	0.088	43	toxic to both blood and insect forms	not toxic
O=C(Nc1ccc(S(=O)(=O)N2CCOCC2)cc1)c1cc(Cl)ccc1NS(=O)(=O)c1ccc(Cl)s1 [Compound 1, Ataciguat]	effectively inhibit	Strong	70	73	4.8	66	toxic to both blood and insect forms	
